According to US20160102066A1, “BENZOTHIAZOLE DERIVATIVE AND ANTI-TUMOR USE THEREOF” (YANTAI UNIVERSITY, priority 2014, published 2016):

Tested on: prostate cancer RM-1 transplanted tumor
Experiment: mice prostate cancer RM-1 transplanted tumor, in vivo
Settings: male C57/BL6 mice, i.p., Docetaxel 10 mg/kg × 3, 1-1 100 mg/kg × 4
Experimental: The experiment procedures are summarized as follows: mice who had prostate cancer RM-1 and grown well were sacrificed by cervical dislocation. Under sterile conditions, tumor mass growing well was stripped off, homogenized, diluted with physiological saline in 1:4. Each mouse was inoculated 0.2 mL of the tumor solution in the armpit and back (approximately 2*10^6 cells). On the next day; the animals were randomized into groups and the administration began. […] The dosing volume was 0.1 mL/10 g. At the same time, docetaxel control group and solvent control group were set. As for the docetaxel group, the animals were administered by intraperitoneal injection at 10 mg/kg dose, the dosing volume was 0.1 mL/10 g. After continuous administration for 10 days, the animals were sacrificed by cervical dislocation, weighed the body and the tumor, respectively. Inhibition rate of tumor growth (%) was calculated, and the results were statistically processed.

CC(=O)O[C@@]12CO[C@@H]1C[C@H](O)[C@@]1(C)C(=O)[C@H](O)C3=C(C)[C@@H](OC(=O)[C@H](O)[C@@H](NC(=O)OC(C)(C)C)c4ccccc4)C[C@@](O)([C@@H](OC(=O)c4ccccc4)[C@H]21)C3(C)C [Docetaxel, docetaxel]
Tumor weight: 1.77 ± 0.61 g | body weight of Animals, Final (at sacrifice): 18.43 ± 2.17 g | body weight of Animals, Initial (baseline): 20.00 ± 1.07 g | Inhibition rate of tumor growth (versus solvent control): 32%
